Reference: article PMC9492542, “Brain-restricted mTOR inhibition with binary pharmacology” (Nature, 2022)
Values joined by “and” are separate entries in the source; they are usually repeats but may differ in a detail not shown here. Equal entries are not always repeated. Where two headings read alike, the source gives them in different places.

Columns and labels:
mTOR = target: T1, mTOR (Homo sapiens, UniProt P42345); test: In vitro mTOR kinase inhibition assay (SelectScreen Z'-LYTE), with or without 10 µM FKBP12; type: biochemical; details: for residual kinase activity (mTOR): listed as RL-1
T1 construct: We performed in vitro kinase assays with purified mTOR protein; purchased SelectScreen Services (Thermo Fisher Scientific)
Experimental: In vitro kinase inhibition assays were performed by SelectScreen Services (Thermo Fisher Scientific) using either Z’-LYTE (mTOR, Src, Csk, EGFR, HER2 and HGK), Adapta (LRRK2) or LanthaScreen (DDR2) assay format (standardized protocols can be accessed on the SelectScreen website: https://www.thermofisher.com/us/en/home/products-and-services/services/custom-services/screening-and-profiling-services/selectscreen-profiling-service/selectscreen-kinase-profiling-service.html. When indicated, recombinant FKBP12 protein was added to the assay mixture to a final concentration of 10 µM.

U87MG = test: Orthotopic intracranial U87MG-luciferase glioblastoma xenograft
[1] = U87MG-Luc, day 0, individual mice
[2] = U87MG-Luc, day 5, individual mice
[3] = U87MG-Luc, day 10, individual mice
[4] = U87MG-Luc, day 15, individual mice
[5] = U87MG-Luc, day 20, individual mice
[6] = U87MG-Luc, day 25, individual mice

T1 sequence (P42345 1360-2549 limits assumed): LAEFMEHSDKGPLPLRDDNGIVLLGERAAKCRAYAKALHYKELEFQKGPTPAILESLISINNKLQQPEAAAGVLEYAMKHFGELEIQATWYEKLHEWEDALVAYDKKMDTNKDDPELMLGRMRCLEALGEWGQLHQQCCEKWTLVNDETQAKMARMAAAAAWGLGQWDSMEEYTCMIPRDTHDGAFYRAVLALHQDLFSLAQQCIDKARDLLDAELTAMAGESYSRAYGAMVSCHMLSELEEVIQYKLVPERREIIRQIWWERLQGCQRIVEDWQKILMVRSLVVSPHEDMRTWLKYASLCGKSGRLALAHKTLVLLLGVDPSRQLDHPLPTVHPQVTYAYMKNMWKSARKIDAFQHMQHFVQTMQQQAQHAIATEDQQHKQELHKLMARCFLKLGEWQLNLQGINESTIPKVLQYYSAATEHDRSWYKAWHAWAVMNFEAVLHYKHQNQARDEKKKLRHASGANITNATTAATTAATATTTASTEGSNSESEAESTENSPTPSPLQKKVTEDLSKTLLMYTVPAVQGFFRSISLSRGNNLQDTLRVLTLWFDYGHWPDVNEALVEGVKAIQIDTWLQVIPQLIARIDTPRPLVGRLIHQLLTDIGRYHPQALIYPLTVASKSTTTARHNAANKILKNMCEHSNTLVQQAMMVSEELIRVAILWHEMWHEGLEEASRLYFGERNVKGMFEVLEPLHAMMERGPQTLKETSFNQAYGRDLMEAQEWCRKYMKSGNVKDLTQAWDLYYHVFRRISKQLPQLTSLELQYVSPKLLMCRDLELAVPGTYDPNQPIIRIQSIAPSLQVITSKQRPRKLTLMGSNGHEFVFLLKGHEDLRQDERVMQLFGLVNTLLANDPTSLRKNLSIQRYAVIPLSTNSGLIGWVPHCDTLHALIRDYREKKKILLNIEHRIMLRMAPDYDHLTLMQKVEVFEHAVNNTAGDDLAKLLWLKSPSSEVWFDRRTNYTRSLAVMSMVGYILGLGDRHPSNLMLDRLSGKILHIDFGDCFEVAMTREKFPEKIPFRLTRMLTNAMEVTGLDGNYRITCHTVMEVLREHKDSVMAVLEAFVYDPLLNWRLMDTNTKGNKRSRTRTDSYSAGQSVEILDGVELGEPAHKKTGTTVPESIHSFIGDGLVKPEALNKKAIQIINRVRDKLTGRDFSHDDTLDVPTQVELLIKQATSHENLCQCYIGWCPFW

In the case of CO[C@H]1C[C@@H]2CC[C@@H](C)[C@@](O)(O2)C(=O)C(=O)N2CCCC[C@H]2C(=O)O[C@H]([C@H](C)C[C@@H]2CC[C@@H](OCCOCc3cn(CCOCCOCCOCCOCCOCCOCCOCCOCCC(=O)NCCCCn4nc(-c5ccc6oc(N)nc6c5)c5c(N)ncnc54)nn3)[C@H](OC)C2)CC(=O)[C@H](C)/C=C(\C)[C@@H](O)[C@@H](OC)C(=O)[C@H](C)C[C@H](C)/C=C/C=C/C=C/1C [RapaLink-1], the “residual kinase activity (mTOR)” value (mTOR; 0.0457 nM drug, +FKBP) is reported as 103, the remaining activity at 45.7 pM (mTOR; 0.0457 nM drug, +FKBP, read-out: residual kinase activity (mTOR)) is reported as 102% and the “residual kinase activity (mTOR)” value (mTOR; 0.0457 nM drug, no FKBP) is reported as 99. The remaining activity at 45.7 pM (mTOR; 0.0457 nM drug, no FKBP, read-out: residual kinase activity (mTOR)) was 101%, the “residual kinase activity (mTOR)” value (mTOR; 0.137 nM drug, +FKBP) was 99 and the remaining activity at 0.000137 µM (mTOR; 0.137 nM drug, +FKBP, read-out: residual kinase activity (mTOR)) was 101%. For the same compound, the “residual kinase activity (mTOR)” value (mTOR; 0.137 nM drug, no FKBP) was 96, the remaining activity at 0.000137 µM (mTOR; 0.137 nM drug, no FKBP, read-out: residual kinase activity (mTOR)) was 97% and the remaining activity at 0.000412 µM (mTOR; 0.412 nM drug, +FKBP, read-out: residual kinase activity (mTOR)) was 97%. The “residual kinase activity (mTOR)” value (mTOR; 0.412 nM drug, no FKBP) was 92, the remaining activity at 0.000412 µM (mTOR; 0.412 nM drug, no FKBP, read-out: residual kinase activity (mTOR)) was 95% and the “residual kinase activity (mTOR)” value (mTOR; 1.23 nM drug, +FKBP) was 86. For the same compound, the remaining activity at 0.00123 µM (mTOR; 1.23 nM drug, +FKBP, read-out: residual kinase activity (mTOR)) was 89%, the “residual kinase activity (mTOR)” value (mTOR; 1.23 nM drug, no FKBP) was 83 and the remaining activity at 0.00123 µM (mTOR; 1.23 nM drug, no FKBP, read-out: residual kinase activity (mTOR)) was 87%. For the same compound, the “residual kinase activity (mTOR)” value (mTOR; 11.1 nM drug, +FKBP) was 17, the remaining activity at 0.0111 µM (mTOR; 11.1 nM drug, +FKBP, read-out: residual kinase activity (mTOR)) was 14% and the remaining activity at 0.0111 µM (mTOR; 11.1 nM drug, no FKBP, read-out: residual kinase activity (mTOR)) was 15%. For the same compound, the “residual kinase activity (mTOR)” value (mTOR; 33.3 nM drug, +FKBP) was 4, the remaining activity at 0.0333 µM (mTOR; 33.3 nM drug, +FKBP, read-out: residual kinase activity (mTOR)) was 2% and the “residual kinase activity (mTOR)” value (mTOR; 33.3 nM drug, no FKBP) was 2. For the same compound, the remaining activity at 0.0333 µM (mTOR; 33.3 nM drug, no FKBP, read-out: residual kinase activity (mTOR)) was 3%, the “residual kinase activity (mTOR)” value (mTOR; 100 nM drug, +FKBP) was 2 and the remaining activity at 0.1 µM (mTOR; 100 nM drug, +FKBP, read-out: residual kinase activity (mTOR)) was 3%. For the same compound, the “residual kinase activity (mTOR)” value (mTOR; […] drug, +FKBP) was 57, the remaining activity at […] (mTOR; […] drug, +FKBP, read-out: residual kinase activity (mTOR)) was 55% and the “residual kinase activity (mTOR)” value (mTOR; […] drug, no FKBP) was 54. The remaining activity at […] (mTOR; […] drug, no FKBP, read-out: residual kinase activity (mTOR)) was 56%, the “IC50 for mTOR kinase activity” value (mTOR; purified mTOR, whether FKBP12 was present) was “identical half-maximal inhibitory concentration (IC50) values as MLN0128” and the “tumour growth and survival” value (U87MG; RapaLink-1 1 mg per kg, RapaBlock 40 mg per kg, i.p. every 5 days) was “significantly suppressed tumour growth and improved survival”. For the same compound, the Mouse weight (U87MG; [1]) was 25.3 g and 21.6 g and 19 g and 22.3 g and 21.7 g and 23.2 g, the “Tumor size (measured by bioluminescence)” value (U87MG; [1]) was 4240000 and 1010000 and 1910000 and 5080000 and 3680000 and 9440000 and the Mouse weight (U87MG; [2]) was 26.2 g and 22.3 g and 20.2 g and 23.3 g and 23.2 g (2×). For the same compound, the “Tumor size (measured by bioluminescence)” value (U87MG; [2]) was 1460000 and 640000 and 1800000 and 5970000 and 155000 and 7230000, the Mouse weight (U87MG; [3]) was 26.1 g and 22.4 g (2×) and 20.7 g and 22.7 g and 21.8 g and the “Tumor size (measured by bioluminescence)” value (U87MG; [3]) was 3420000 and 1030000 and 12000000 and 3100000 and 5850000 and 4400000. For the same compound, the Mouse weight (U87MG; [4]) was 25.2 g and 22 g and 20.3 g and 23.7 g and 23.4 g and 21.9 g, the “Tumor size (measured by bioluminescence)” value (U87MG; [4]) was 11100000 and 3790000 and 12200000 and 19000000 and 408000 and 7800000 and the Mouse weight (U87MG; [5]) was 26.4 g and 22.6 g and 21.3 g and 25.8 g and 23.9 g and 23.3 g. The “Tumor size (measured by bioluminescence)” value (U87MG; [5]) was 53600000 and 17300000 and 32400000 and 53200000 and 63600000 and 11500000, the Mouse weight (U87MG; [6]) was 22.4 g and 22.3 g and 20.3 g and 24.8 g and 21.6 g and 23.4 g and the “Tumor size (measured by bioluminescence)” value (U87MG; [6]) was 605000000 and 412000000 and 640000000 and 201000000 and 1240000000 and 128000000. For the same compound, the “Tumor size (measured by bioluminescence)” value (U87MG; U87MG-Luc, day 30, individual mice) was 1100000000 and 366000000 and 814000000 and 167000000 and the Mouse survival (U87MG; U87MG-Luc, individual mice, listed as RL-1) was 32 days and 30 days and 41 days and 40 days.
